Entries after “also recorded” stand apart in the source; their conditions may differ.
Key:
Djndk, Djmpka, DjAdb-Ba = experiment: Gene expression in regenerating planaria blastemas (real-time PCR); type: in vivo, Dugesia japonica; conditions: 100 nM, 2 days post injury
Description: Whole mount in situ hybridization, real-time PCR and dsRNA synthesis: Regenerating blastemas were obtained from planaria after surgical injury and placed in Trizol (Ambion). RNA was isolated following manufacturer's instructions and cDNA was synthesized essentially as in (16) using random hexamers, Oligo(dt)20 and Superscript III (Invitrogen), Relative quantitative analysis for each gene product was carried out using an ABI 7900ht fast real-time PCR machine (Applied Biosystems). DjGapdh—Forward: […] (SEQ ID NO. 1); Reverse: […] (SEQ ID NO. 2). Djsfpr-A—Forward: […] (SEQ ID NO. 3); Reverse: […] (SEQ ID NO. 4). Djndk—Forward: […] (SEQ ID NO. 5); Reverse: […] (SEQ ID NO. 6). DjmpkA—Forward: […] (SEQ ID NO. 7); Reverse: […] (SEQ ID NO. 8). DfAdb-Ba—Forward: […] (SEQ ID NO. 9); Reverse: […] (SEQ ID NO. 10). DjGst—Forward: […] (SEQ ID NO. 11); Reverse: […] (SEQ ID NO. 12). The constitutively transcribed housekeeping gene, GAPDH, was employed to normalized target gene expression levels as in (16).
Planaria regeneration: Planaria (Dugesia japonica; Dj) were kept in water (Poland Spring) at 18° C. […] Tissue regeneration was assessed as in (12). […] The extent of tissue regeneration during a 6-day period for D. japonica was determined using captured images of the regenerating blastemas at regular intervals (24 h). These images were analyzed using ImageJ software. […]

E. coli = experiment: Murine E. coli peritonitis: leukocyte counts, resolution indices, in vivo phagocytosis; parameters: species or system mouse; conditions: for leukocyte phagocytosis of E. coli in vivo: co-administration of SCI and SCII 50 ng each, i.p.; for resolution of infections in mice: co-administration of equal amounts of SCI and SCII
Description: Murine Peritonitis: Mouse experiments were conducted in accordance with guidelines from Harvard Medical Area Standing Committee on Animals (protocol no. 02570). Mice were inoculated with E. coli (serotype 06:K2:H1) as in (11) and peritoneal exudates were collected by lavaging the peritoneal cavity with 4 ml of PBS (without calcium and magnesium) at the indicated intervals. Leukocytes were enumerated by light microscopy using nuclear morphology staining with Turks solution and flow cytometry probing for CD11b-PerCP/Cy5.5 (eBioscience, clone: M1/70), F4/80-PE (eBioscience, BM8) and Ly6G-FITC (eBioscience, clone: 1A8) as in (11). For product isolation, 24 h peritoneal exudates were collected and 2 volumes of ice-cold methanol were added. Isolates were obtained as detailed in the lipid mediator metabotolipidomics section.
In select experiments 12 h after E. coli inoculation, mice were administered either 100 ng of SCI and SCII (50 ng/each per mouse) or vehicle (saline containing 0.1% ethanol (EtOH)) via i.p. injection. Peritoneal exudates were then collected and leukocyte counts determined as above. Assessment of leukocyte phagocytosis of E. coli in inflammatory exudates was conducted as in (11). Briefly cells were incubated with anti-CD11b-Per(T/Cy5.5 conjugated antibody; subsequently the cells were permeabilized using BD Cytofix/Cytoperm™ Fixation/Permeabilization Kit following manufacturer's instructions; cells were then incubated with a FITC conjugated anti-E. coli antibody (GTX40856; GeneTex) and phagocytosis assessed as mean fluorescence in the CD11b- positive cell population.
Resolution indices were calculated as in (11) where Ψmax=the maximal PMN numbers in the exudates; Tmax=the time point when PMN numbers reach maximum; R50=50% of maximal PMN numbers; T50=the time point when PMN numbers reduce to 50% of maximum; Ri (resolution interval)=T50−Tmax, the time period when 50% PMN are lost from the exudates.

[1] = system: Planaria (Dugesia japonica); experiment: Planaria tissue regeneration after surgical injury (head resection), tissue regeneration index; type: in vivo; conditions: for T50: either SCI or SCII alone, concentration dependent, vehicle ~5 days; for tissue regeneration / head regrowth (in words): surgically injured planaria vs vehicle
Description: Planaria regeneration: Planaria (Dugesia japonica; Dj) were kept in water (Poland Spring) at 18° C. All animals were starved for at least 7 days prior to experiments. Tissue regeneration was assessed as in (12). Briefly, planaria were subject to head resection post-occularly (surgical Injury). The posterior portions of the planaria were then placed in spring water containing 0.01% EtOH, SPE-C isolate fraction 2 from resolving exudates or milk at the indicated dilutions, U0126 (Extracellular signal-regulated kinases (ERK) inhibitor; Cell Signaling Technology; 25 μM (16)), U0126 plus resolving exudates SPE-C isolates fraction 2, SCI (100 nM), SCII (100 nM), lipoxygenase inhibitor (baicalein, 10 μM) or lipoxygenase inhibitor plus SCI and SCII (100 nM). The extent of tissue regeneration during a 6-day period for D. japonica was determined using captured images of the regenerating blastemas at regular intervals (24 h). These images were analyzed using ImageJ software. A tissue regeneration index (TRI) was employed that took into consideration the size of the regenerated tissue total area (A) and the post-ocular width W of the animal, where TRI=A/W. In determined experiments, planaria were injured and incubated in water, containing 10^8CFU E. coli (serotype O6:K2:H1) or with E. coli plus SCI and SCII (100 nM), and tissue regeneration indices assessed as described above.
Planaria regeneration: Planaria (Dugesia japonica) were kept in water (Poland. Spring; Nestlé Waters North America, Stamford, Conn., USA) at 18° C. All animals were starved for at least 7 d before the experiments. Tissue regeneration was assessed as described previously (10). In brief, planaria were subjected to head resection postoccularly (surgical injury). The posterior portions of the planaria were then placed in spring water containing 0.01% EtOH, 16-glutathionyl, 17-hydroxyl-4Z,7Z,10,12,14,19Z-docosahexaenoic acid plus 16-cysteinylglycinyl, 7-hydroxyl-4Z,7Z,10,12,14,19Z-docosahexaenoic acid (50 nM; each) or 8-gutathionyl, 7,17-dihydroxyl-4Z9,11,13Z,15E,19Z-docosahexaenoic acid plus 8-cysteinylglycinyl, 7,17-dihydroxyl-4Z,9,11,13Z,15E,19Z-docosahexaenoic acid (50 nM, each). The extent of tissue regeneration during a 6-d period was determined using captured images of the regenerating blastemas at regular intervals (24 h). These images were analyzed using ImageJ software (NIH, Bethesda, Md., USA). A tissue regeneration index (TRI) was used that took into consideration the size of the regenerated tissue total area (A) and the postocular width (W), where TRI=A/W (10).

Compound: 13-glutathionyl, 14-hydroxy-docosahexaenoic acid [SCI]
- genes involved in head regeneration (Djndk, Djmpka, DjAdb-Ba): upregulated
- leukocyte phagocytosis of E. coli in vivo (E. coli): Stimulates mouse
- resolution of infections in mice (E. coli): Promotes resolution of
- T50 [1]: ~3.5 days
- tissue regeneration / head regrowth (in words) [1]: accelerated head regrowth; also recorded: Promotes tissue

Compound: CCC=CCC=CCC(O)C(C=CC=CC=CCC=CCCC(=O)O)SCC(N)C(=O)NCC(=O)O (stereo not shown) [SCII, 13-cysteinylglycinyl, 14-hydroxy-docosahexaenoic acid]
- genes involved in head regeneration (Djndk, Djmpka, DjAdb-Ba): upregulated
- leukocyte phagocytosis of E. coli in vivo (E. coli): Stimulates mouse
- resolution of infections in mice (E. coli): Promotes resolution of
- T50 [1]: ~3.5 days
- tissue regeneration / head regrowth (in words) [1]: accelerated head regrowth; also recorded: Promotes tissue

— patent US11135228B2, “Cysteinyl-proresolving mediators that promote resolution of infection and organ protection” (THE BRIGHAM AND WOMEN'S HOSPITAL, priority 2014, dated 2021)
